Measured values taken from ChEMBL document CHEMBL3132769, “Fragment growing to retain or alter the selectivity of anchored kinase hinge-binding fragments” (Medchemcomm, 2014).

Assays:
[1] = biological target: Mitogen-activated protein kinase 1 (Homo sapiens) (UniProt P28482); test: Inhibition of human full length ERK2 expressed in Escherichia coli cell assessed as substrate phosphorylation using fluorescence-labelled peptides as substrate at 0.06 uM after 90 mins by microfluidic peptide phosphorylation assay
[2] = biological target: Protein kinase C theta type (Homo sapiens) (UniProt Q04759); test: Inhibition of human truncated PKC theta expressed in baculovirus assessed as substrate phosphorylation using fluorescence-labelled peptides as substrate at […] after 90 mins by microfluidic peptide phosphorylation assay
[3] = biological target: T1, Serine/threonine-protein kinase 3 (Homo sapiens) (UniProt Q13188); test: Inhibition of human full length MST2 expressed in baculovirus assessed as substrate phosphorylation using fluorescence-labelled peptides as substrate at 9 uM after 90 mins by microfluidic peptide phosphorylation assay
T1 sequence (whole entry): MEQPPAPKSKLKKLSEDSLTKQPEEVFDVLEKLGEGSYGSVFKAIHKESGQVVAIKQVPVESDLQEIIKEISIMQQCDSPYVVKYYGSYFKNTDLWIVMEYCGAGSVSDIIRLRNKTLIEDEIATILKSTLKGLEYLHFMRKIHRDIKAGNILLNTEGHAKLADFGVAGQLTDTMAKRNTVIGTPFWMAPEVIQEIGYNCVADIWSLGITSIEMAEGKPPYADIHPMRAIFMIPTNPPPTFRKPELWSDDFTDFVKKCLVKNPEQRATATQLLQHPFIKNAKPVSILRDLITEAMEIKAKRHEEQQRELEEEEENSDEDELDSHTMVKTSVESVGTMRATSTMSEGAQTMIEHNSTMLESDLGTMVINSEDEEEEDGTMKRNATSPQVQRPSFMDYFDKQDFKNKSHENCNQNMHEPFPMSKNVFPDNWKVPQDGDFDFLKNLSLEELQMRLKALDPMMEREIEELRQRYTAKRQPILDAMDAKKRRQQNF

[4] = biological target: T2, Serine/threonine-protein kinase D1 (Homo sapiens) (UniProt Q15139); test: Inhibition of human full length PKD1 expressed in baculovirus assessed as substrate phosphorylation using fluorescence-labelled peptides as substrate at 95 uM after 90 mins by microfluidic peptide phosphorylation assay
T2 sequence (whole entry): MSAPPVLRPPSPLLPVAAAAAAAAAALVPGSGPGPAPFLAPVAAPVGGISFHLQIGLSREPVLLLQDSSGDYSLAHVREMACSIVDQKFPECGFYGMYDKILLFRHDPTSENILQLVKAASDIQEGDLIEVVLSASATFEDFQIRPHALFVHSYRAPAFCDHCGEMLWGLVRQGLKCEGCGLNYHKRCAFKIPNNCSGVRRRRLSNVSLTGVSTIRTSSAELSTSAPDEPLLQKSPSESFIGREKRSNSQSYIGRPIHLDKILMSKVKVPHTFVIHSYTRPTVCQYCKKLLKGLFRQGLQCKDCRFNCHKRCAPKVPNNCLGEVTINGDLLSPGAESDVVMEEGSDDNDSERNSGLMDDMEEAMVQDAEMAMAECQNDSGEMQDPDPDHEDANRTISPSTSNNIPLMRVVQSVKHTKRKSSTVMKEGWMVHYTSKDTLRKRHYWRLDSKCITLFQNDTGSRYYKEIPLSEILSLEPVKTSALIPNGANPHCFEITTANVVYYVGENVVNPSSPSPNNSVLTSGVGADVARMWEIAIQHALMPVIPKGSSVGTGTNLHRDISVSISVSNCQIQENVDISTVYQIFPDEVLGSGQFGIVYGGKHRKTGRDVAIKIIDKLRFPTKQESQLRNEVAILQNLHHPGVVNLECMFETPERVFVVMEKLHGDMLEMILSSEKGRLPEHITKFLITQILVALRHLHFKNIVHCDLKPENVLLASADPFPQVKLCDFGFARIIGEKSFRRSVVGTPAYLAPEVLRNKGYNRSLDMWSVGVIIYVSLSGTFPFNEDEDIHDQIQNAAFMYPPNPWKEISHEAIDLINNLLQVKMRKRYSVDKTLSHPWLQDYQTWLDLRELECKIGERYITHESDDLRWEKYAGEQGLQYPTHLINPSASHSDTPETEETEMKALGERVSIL

[5] = biological target: T3, Calcium/calmodulin-dependent protein kinase type IV (Homo sapiens) (UniProt Q16566); test: Inhibition of human full length CAMK4 expressed in baculovirus assessed as substrate phosphorylation using fluorescence-labelled peptides as substrate at 1000 uM after 90 mins by microfluidic peptide phosphorylation assay
T3 sequence (whole entry): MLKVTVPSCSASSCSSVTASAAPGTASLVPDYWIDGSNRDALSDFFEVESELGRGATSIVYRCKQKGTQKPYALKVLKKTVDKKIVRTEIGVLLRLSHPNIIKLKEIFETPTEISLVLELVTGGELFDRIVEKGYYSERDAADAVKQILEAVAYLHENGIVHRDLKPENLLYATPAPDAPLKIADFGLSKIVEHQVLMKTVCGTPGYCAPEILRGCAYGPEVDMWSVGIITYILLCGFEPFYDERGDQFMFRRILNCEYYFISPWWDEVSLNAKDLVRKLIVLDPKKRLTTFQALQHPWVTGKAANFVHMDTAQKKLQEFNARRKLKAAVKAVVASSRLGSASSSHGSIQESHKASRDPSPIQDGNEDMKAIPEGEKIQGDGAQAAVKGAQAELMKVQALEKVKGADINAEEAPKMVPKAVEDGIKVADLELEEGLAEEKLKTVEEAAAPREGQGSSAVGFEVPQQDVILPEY

[6] = test system: Tyrosine-protein kinase ABL1 (Homo sapiens), P00519 [T315I]; test: Inhibition of human truncated ABL T315I mutant expressed in baculovirus assessed as substrate phosphorylation using fluorescence-labelled peptides as substrate at 1000 uM after 90 mins by microfluidic peptide phosphorylation assay

Chain of Mitogen-activated protein kinase 1 (Homo sapiens) (P28482 whole entry, the tested form may be a part): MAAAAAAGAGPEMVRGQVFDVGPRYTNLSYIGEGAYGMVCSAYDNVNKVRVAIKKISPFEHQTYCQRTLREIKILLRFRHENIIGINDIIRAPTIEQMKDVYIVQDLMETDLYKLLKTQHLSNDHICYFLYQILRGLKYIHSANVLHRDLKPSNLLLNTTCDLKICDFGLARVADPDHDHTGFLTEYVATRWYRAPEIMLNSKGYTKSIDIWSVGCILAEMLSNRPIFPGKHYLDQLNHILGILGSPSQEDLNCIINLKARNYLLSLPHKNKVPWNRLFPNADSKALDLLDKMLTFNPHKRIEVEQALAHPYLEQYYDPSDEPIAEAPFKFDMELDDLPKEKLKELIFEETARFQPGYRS
Chain of Protein kinase C theta type (Homo sapiens) (Q04759 whole entry, looked up, the tested form may be a part): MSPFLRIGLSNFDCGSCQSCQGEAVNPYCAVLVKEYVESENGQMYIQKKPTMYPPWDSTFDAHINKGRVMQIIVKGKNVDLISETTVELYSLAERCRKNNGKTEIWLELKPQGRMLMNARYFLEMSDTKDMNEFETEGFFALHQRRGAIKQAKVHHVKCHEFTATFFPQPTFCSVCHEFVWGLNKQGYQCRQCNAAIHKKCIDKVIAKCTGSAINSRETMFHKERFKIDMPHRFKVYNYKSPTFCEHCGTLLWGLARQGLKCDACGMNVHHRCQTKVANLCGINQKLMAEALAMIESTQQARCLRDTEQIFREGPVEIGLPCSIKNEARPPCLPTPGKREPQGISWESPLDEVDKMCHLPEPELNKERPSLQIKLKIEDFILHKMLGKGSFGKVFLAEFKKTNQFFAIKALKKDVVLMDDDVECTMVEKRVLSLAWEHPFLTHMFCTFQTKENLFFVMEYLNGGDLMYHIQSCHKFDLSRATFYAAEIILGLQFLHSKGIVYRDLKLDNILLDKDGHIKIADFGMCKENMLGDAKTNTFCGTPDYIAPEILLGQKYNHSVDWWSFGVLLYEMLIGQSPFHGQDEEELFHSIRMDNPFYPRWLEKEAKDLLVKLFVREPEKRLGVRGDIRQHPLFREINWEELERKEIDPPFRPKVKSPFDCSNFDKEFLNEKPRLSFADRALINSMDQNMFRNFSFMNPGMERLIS

**Q.** `NC1(Cc2ccc(Cl)cc2)CCN(c2ncnc3[nH]ccc23)CC1` was tested. Which inhibition [1] did it give?
**A.** Its inhibition is 4.5%.

**Q.** `COC(=O)c1cnc(Nc2cnc(C#N)cn2)cc1NCC1CCNCC1` was tested. Which inhibition [2] did it give?
**A.** Its inhibition is 4%.

**Q.** `NCC1CN(c2ncnc3[nH]c4cnccc4c23)CCO1` (stereo unspecified) was tested. Which inhibition [3] did it give?
**A.** The inhibition was 81%.

**Q.** `NCCc1ccc(-c2ncnc3[nH]cnc23)cc1` was tested. Which inhibition [4] did it give?
**A.** Its inhibition is 44%.

**Q.** For `c1cnc2[nH]ccc2c1`, which inhibition [5] is on record?
**A.** Its inhibition is 52%.

**Q.** And the inhibition [6]?
**A.** Its inhibition is 58%.
